The values below come from ChEMBL document CHEMBL1146023, “Similar structure-activity relationships of quinoline derivatives for antiprion and antimalarial effects” (J Med Chem, 2006).

The source made the active and inactive calls. The calls are words filed in the database; no cut-off is given here.

The subject of data set [1] is ScN2a. Nature of the data set: Inhibition of scrapie prion formation in mouse ScN2a cell line relative to control. The class given is functional, cell-based.
The subject of data set [2] is ScN2a. Briefly: Toxicity against ScN2a cell line at 10 uM. As to conditions: mouse. It is filed as cell-based.
Data set [3] relates to ScN2a. Nature of the data set: Inhibition of scrapie prion formation in mouse ScN2a cell line. It is filed as functional.
Data set [4] relates to Plasmodium falciparum. Briefly: Antimalarial activity against chloroquine-resistant Plasmodium falciparum FcB1 at 100 nM. The class given is functional.
For data set [5], the system named is ScN2a. Nature of the data set: Inhibition of scrapie prion formation in mouse ScN2a cell line at 200 nM. The class given is functional, cell-based.
Data set [6] has as its system ScN2a. Briefly: Selectivity index, toxicity against ScN2a cell line/EC50 for scrapie prion formation in mouse ScN2a cell line. The class given is functional.
The subject of data set [7] is Plasmodium falciparum. Briefly: microbe, parasite or virus in culture. As to conditions: FcB1.
Data set [8] concerns ScN2a. Briefly: Toxicity against ScN2a cell line. It is filed as cell-based. Conditions: mouse.
A short description of data set [9]: Toxicity against MRC5 cell line. It is filed as cell-based. Conditions: human, MRC5 cells.
Data set [10] relates to MRC5. Briefly: Selectivity index, toxicity against MRC5 cell line/EC50 for scrapie prion formation in mouse ScN2a cell line. The class given is functional.

As usually defined, the EC50 is the midpoint of the concentration-response curve. A high value points to lower potency in that assay. By inhibition is commonly meant the percentage by which the read-out fell short of the control. Higher therefore signals strong suppression. Regarding `O=C(NCCCN1CCN(CCCNc2ccnc3cc(Cl)ccc23)CC1)c1ccncc1`, a half-maximal effect in data set [1] (EC50) was put at 3000 nM. The Activity result in data set [2] is recorded as “Non-toxic”; in data set [3] it was 5000 nM. This molecule registered an inhibition at 0.1 µM in [4] of 1%.
The term IC50 denotes the concentration that gives 50% inhibition. A low value points to inhibition by little substance. Consider `CC(C)(C)c1ccc(C(=O)NCCCN2CCN(CCCNc3ccnc4cc(Cl)ccc34)CC2)cc1`, for which the result in [5] was Active. In data set [1], the concentration for a half-maximal effect (EC50) stood at 100 nM. The molecule further returned a Selectivity index in data set [6] of 10. The molecule further had a half-inhibitory concentration (IC50) in [7] of 54.8 nM. Also, the Activity in data set [8] was 1000 nM; in data set [3], 200 nM.
Molecule `O=C(c1ccc2ccccc2c1)N(CCCN1CCN(CCCNc2ccnc3cc(Cl)ccc23)CC1)CC1CC1` came in with an EC50 in [1] of 75 nM. In data set [6], this molecule had a Selectivity index of 26.67. The Activity in [8] turned out to be 2000 nM; in data set [3], 300 nM. The molecule further gave an inhibition at 0.1 µM in [4] of 23%.
What is called CC50 is the concentration giving 50% cytotoxicity. Lower therefore signals greater toxicity to the cells. `COc1ccc(C(=O)NCCCN2CCN(CCCNc3ccnc4cc(Cl)ccc34)CC2)cc1`: the EC50 in data set [1] was found to be 100 nM. For the same molecule, the Selectivity index in data set [6] stood at 30; in data set [10] it was 40. In [9], this molecule yielded a CC50 of 4000 nM. In addition, the Activity in [8] is given as 3000 nM; in data set [3], 300 nM.
Molecule `O=C(NCCCN1CCN(CCCNc2ccnc3cc(Cl)ccc23)CC1)c1cccc(Oc2ccccc2)c1` returned an EC50 in [1] of 200 nM. The Selectivity index in [6] came to 3.75; in [10], 25. Besides, the CC50 in data set [9] was determined as 5000 nM. In addition, the Activity is reported as 750 nM in data set [8] and 300 nM in [3].
Turning to `O=C(NCCCN1CCN(CCCNc2ccnc3cc(Cl)ccc23)CC1)C1c2ccccc2Oc2ccccc21`, it took 100 nM to reach a half-maximal effect in [1] (EC50). Moreover, the Selectivity index in [6] was 7.5. Moreover, the Activity was found to be 750 nM in [8] and 300 nM in data set [3]. The molecule further yielded an inhibition at 0.1 µM in data set [4] of 11%.
In [1], `O=S(=O)(NCCCN1CCN(CCCNc2ccnc3cc(Cl)ccc23)CC1)c1ccc(Cl)cc1` displayed an EC50 of 250 nM. The molecule further registered a Selectivity index in data set [6] of 8. The Activity in [8] was found to be 2000 nM; in data set [3], 500 nM. Besides, at 0.1 µM the inhibition in [4] was 26%.
Take `CCN(CC)CCCC(C)Nc1ccnc2cc(Cl)ccc12` (stereo unspecified) [CHLOROQUINE]: in data set [1], the EC50 was determined as 4000 nM. This molecule displayed a half-maximal cytotoxic concentration (CC50) in [9] of 50000 nM. Moreover, the Activity result in data set [2] is listed as “Non-toxic”; in data set [3], 10000 nM.
